{
  "source": "paper PMC8155467",
  "about": "(ACS Central Science, 2021)",
  "key": {"[1]": {"molecular_target": "AKR1B10_C299A mutant (Homo sapiens, UniProt O60218, C299A)", "sequence (O60218 whole entry C299A)": "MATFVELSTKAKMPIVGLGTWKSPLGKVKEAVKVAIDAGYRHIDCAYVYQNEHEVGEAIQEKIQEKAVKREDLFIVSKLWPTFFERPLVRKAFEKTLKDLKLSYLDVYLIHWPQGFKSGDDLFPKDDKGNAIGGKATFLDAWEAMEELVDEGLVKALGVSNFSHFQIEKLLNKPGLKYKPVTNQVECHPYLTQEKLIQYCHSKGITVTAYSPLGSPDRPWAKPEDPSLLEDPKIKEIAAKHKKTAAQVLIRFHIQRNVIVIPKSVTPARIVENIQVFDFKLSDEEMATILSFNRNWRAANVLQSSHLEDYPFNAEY", "assay": "AKR1B10 Inhibition Assay", "format": "biochemical", "settings": "VC59 0.5-50 µM, 1 h; tolrestat, isolithocholic acid 500 nM, 15 min"}, "[2]": {"molecular_target": "AKR1B10 (Homo sapiens, UniProt O60218)", "sequence (O60218 whole entry)": "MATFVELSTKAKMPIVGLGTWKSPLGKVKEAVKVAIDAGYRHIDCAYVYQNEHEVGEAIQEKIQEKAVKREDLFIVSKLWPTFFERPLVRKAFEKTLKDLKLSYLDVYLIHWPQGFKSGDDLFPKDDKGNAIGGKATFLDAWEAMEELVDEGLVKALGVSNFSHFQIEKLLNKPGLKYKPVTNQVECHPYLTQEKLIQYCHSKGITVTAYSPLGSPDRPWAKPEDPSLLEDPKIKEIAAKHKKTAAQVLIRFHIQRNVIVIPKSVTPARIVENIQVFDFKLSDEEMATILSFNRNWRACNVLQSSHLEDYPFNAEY", "settings": "cited from earlier work"}},
  "data": [
    {"compound": "C[C@H](CCC(=O)O)[C@H]1CC[C@H]2[C@@H]3CC[C@@H]4C[C@@H](O)CC[C@]4(C)[C@H]3CC[C@]12C", "note": "[isolithocholic acid]", "values": [
      {"measurement": "inhibition of AKR1B10_C299A mutant reductase activity (NADPH absorbance assay)", "setting": "[1]", "result": "maintained sensitivity"}
    ]},
    {"compound": "CCCCC[C@H](O)/C=C/[C@H]1C=CC(=O)[C@@H]1CCCCCCC(=O)O", "note": "[prostaglandin A1]", "values": [
      {"measurement": "inhibition of AKR1B10 activity by natural electrophilic compounds engaging C299", "setting": "[2]", "result": "inhibit AKR1B10 activity"}
    ]},
    {"compound": "COc1ccc2c(C(=S)N(C)CC(=O)O)cccc2c1C(F)(F)F", "note": "[tolrestat]", "values": [
      {"measurement": "inhibition of AKR1B10_C299A mutant reductase activity (NADPH absorbance assay)", "setting": "[1]", "result": "maintained sensitivity"}
    ]}
  ]
}
